PubChem BioAssay AID492955 (The Scripps Research Institute Molecular Screening Center, 2010)
Activity calls are given as the source filed them.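 How the source made its calls: active means at 10 µM dose, any replicate showing 50% or greater reduction of parasite growth in red cells; inactive means the rest.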

These molecules were tested on P. falciparum 3D7 in RBCs, 3H-hypoxanthine uptake, 48 h (assay: P. falciparum growth inhibition in erythrocytes, late-stage follow-up, M17LAP inhibitor project, cell-based, radiolabel, RBCs, powder samples (AID 492955)). Conditions: at 10 µM; active compounds read high.

SMILES | inhibition
Cc1ccc(NC(=O)CSc2nnc(C)c(=O)[nH]2)cc1C | 15.8% (inactive)
CCc1cc2cc(OC)ccc2nc1SCC(=O)Nc1cc(OC)c(OC)cc1C(=O)O | 2.33% (inactive)
COC(=O)c1c(NC(=O)[C@H]2CCCC[C@H]2C(=O)O)sc2c1CCCCC2 | 3.33% (inactive)
O=C(CSc1nc(O)cc(=O)n1-c1ccccc1)Nc1ccc2c3c(cccc13)CC2 | 3% (inactive)
S=c1nc(-c2cccc(Cl)c2)[nH][nH]1 | 0% (inactive)
COc1cc(NC(=O)CSc2nc3ccccc3cc2C)c(C(=O)O)cc1OC | 5.89% (inactive)
CCOC(=O)c1c(NC(=O)[C@@H]2C3C=CC(C3)[C@@H]2C(=O)O)sc2c1CCC(CC)C2 (stereo partly specified) | 5% (inactive)
Cc1noc(NS(=O)(=O)c2ccc(NC(=O)CSc3nnc4c(n3)[nH]c3ccccc34)cc2)c1C | 1.67% (inactive)
CCc1ccc(Nc2nnc(SC3CCOC3=O)s2)cc1 (stereo unspecified) | 0% (inactive)
COc1ccc2nc(SCC(=O)Nc3cc(OC)c(OC)cc3C(=O)O)c(C)cc2c1 | 1.44% (inactive)
Cc1ccc(-n2c(C)cc(C(=O)COC(=O)c3ccc[nH]c3=O)c2C)cc1C | 3.17% (inactive)
C=CCn1c(SCC(=O)Nc2cccc3ccccc23)nc(O)c(CC)c1=O | 8.22% (inactive)
S=c1nc(-c2ccccc2Br)[nH][nH]1 | 0% (inactive)
COC(=O)c1c(-c2ccco2)csc1NC(=O)[C@H]1CC=CC[C@H]1C(=O)O | 0% (inactive)
O=C(O)CCCCCNC(=O)Nc1ccc2c(c1)OCCO2 | 6.33% (inactive)
COc1ccc(-c2cc(=O)[nH][nH]2)cc1 | 0% (inactive)
CC(C)c1ccc(NC(=O)[C@H]2CCCC[C@H]2C(=O)O)cc1 | 5.67% (inactive)
O=c1cc(-c2ccc(Cl)c(Cl)c2)[nH][nH]1 | 2.67% (inactive)
CN1C(=O)/C(=C/c2ccc(-c3ccccc3[N+](=O)[O-])o2)SC1=Nc1ccc(Cl)c(C(=O)O)c1 | 0% (inactive)
COc1ccc(C(C)(C)C)cc1NC(=O)[C@H]1CC=CC[C@H]1C(=O)O | 0% (inactive)
Cc1cc(C(=O)COC(=O)c2ccc[nH]c2=O)c(C)n1-c1ccccc1 | 6.67% (inactive)
COc1cc(NC(=O)CSc2nc3c(C)ccc(C)c3cc2C)c(C(=O)O)cc1OC | 5% (inactive)

SMILES | inhibition
O=C(CSc1nnc(Nc2ccccc2)s1)NN1C(=O)NC2(CCCCC2)C1=O | 12.9% (inactive)
CCOC(=O)c1c(NC(=O)[C@@H]2C3CCC(O3)[C@@H]2C(=O)O)sc(C)c1-c1ccc(C)cc1 (stereo partly specified) | 0% (inactive)
CCOC(=O)c1c(-c2cccc(C)c2)csc1NC(=O)[C@H]1CC=CC[C@H]1C(=O)O | 1.83% (inactive)
CCCCc1c(O)nc(SCC(=O)Nc2ccc3c(c2)CCC3)[nH]c1=O | 7.67% (inactive)
COC(=O)c1c(-c2cc(C)ccc2C)csc1NC(=O)[C@@H]1CC=CC[C@@H]1C(=O)O | 3.33% (inactive)
O=C(Nc1cc(Cl)ccc1Cl)[C@H]1CC=CC[C@H]1C(=O)O | 1.33% (inactive)
O=C(Nc1ccc(Cl)cc1)Nc1cccc(C(=O)O)c1 | 0% (inactive)
COc1cc(NC(=O)CSc2ncnc3scc(-c4ccccc4)c23)c(C(=O)O)cc1OC | 6.83% (inactive)
COC(=O)c1cccc(NC(=O)CSc2nc(C)cc(=O)[nH]2)c1 | 9.78% (inactive)
COc1ccc(NC(=O)CSC2=NC(=O)CC(C)=N2)cc1 | 0% (inactive)
CCc1cc2ccc(C)cc2nc1SCC(=O)Nc1cc(OC)c(OC)cc1C(=O)O | 6.44% (inactive)
O=C(O)Cc1ccc(NC(=O)Nc2ccc(Br)cc2)cc1 | 1.67% (inactive)
Cn1c(SCC(=O)Nc2cccc3ccccc23)nc(O)cc1=O | 2.5% (inactive)
Cc1ccc(-n2c(C)cc(C(=O)COC(=O)c3ccc[nH]c3=O)c2C)cc1 | 20% (inactive)
N#Cc1c(NC(=O)[C@@H]2C3C=CC(C3)[C@@H]2C(=O)O)sc2c1CCCCC2 (stereo partly specified) | 0% (inactive)
COc1ccc(-c2cc(=O)[nH][nH]2)cc1OC | 3.83% (inactive)
CCOc1ccc(NC(=O)Nc2cccs2)cc1 | 0% (inactive)
CCCCOc1ccc(CC(=O)NO)cc1 | 81.2%
O=c1cc(-c2ccc(F)cc2)[nH][nH]1 | 5.67% (inactive)
N#Cc1c(-c2ccccc2)nc(SCC(=O)N2c3ccccc3Sc3ccccc32)[nH]c1=O | 1% (inactive)
CCOc1ccc(NC(=O)Nc2ccc3nccnc3c2)cc1 | 16% (inactive)
CCn1c2ccccc2c2cc(NC(=O)CSc3nccc(=O)[nH]3)ccc21 | 2.67% (inactive)

SMILES | inhibition
Cc1ccc(Nc2nnc(SC3CCOC3=O)s2)cc1 (stereo unspecified) | 4% (inactive)
COc1ccc(NC(=O)CSc2nc(O)cc(=O)n2C)cc1 | 3.67% (inactive)
O=C(CSc1nccc(=O)[nH]1)Nc1ccc(Br)c(Cl)c1 | 8.67% (inactive)
CCc1ccc(NC(=O)[C@H]2CC=CC[C@H]2C(=O)O)cc1 | 0% (inactive)
O=C(Nc1cccc(Cl)c1)[C@H]1CC=CC[C@H]1C(=O)O | 0.333% (inactive)
CCN(CC)c1ccc(NC(=O)CSc2nc(C)cc(=O)[nH]2)cc1 | 3.5% (inactive)
COC(=O)c1c(NC(=O)[C@H]2CC=CC[C@H]2C(=O)O)sc(C)c1C | 1.33% (inactive)
Cc1ccc(-c2c(C)sc(NC(=O)[C@@H]3C4CCC(O4)[C@@H]3C(=O)O)c2C(=O)OC(C)C)cc1 (stereo partly specified) | 6.33% (inactive)
COC(=O)c1c(-c2ccc(C)cc2)csc1NC(=O)[C@H]1CC=CC[C@H]1C(=O)O | 0% (inactive)
CCOC(=O)c1c(-c2ccc(C)cc2)csc1NC(=O)[C@H]1CC=CC[C@H]1C(=O)O | 10.7% (inactive)
CCc1cc2ccccc2nc1SCC(=O)Nc1cc(OC)c(OC)cc1C(=O)O | 2.78% (inactive)
Cc1ccc(-c2cccc(NC(=O)[C@@H]3C4C=CC(C4)[C@@H]3C(=O)O)c2)o1 (stereo partly specified) | 8.83% (inactive)
CC1=C(C)C[C@@H](C(=O)O)[C@@H](C(=O)Nc2cccc([N+](=O)[O-])c2)C1 | 11.2% (inactive)
CCOc1cccc(-c2cc(=O)[nH][nH]2)c1 | 2.83% (inactive)
Cc1ccc(Nc2nnc(SCc3cc(=O)n4ccsc4n3)s2)c(C)c1 | 18.4% (inactive)
Cc1cc(C(=O)COC(=O)c2ccc[nH]c2=O)c(C)n1-c1ccc(F)cc1 | 0% (inactive)
COc1cc(NC(=O)CSc2nnc3c(C)cc4cc(C)cc(C)c4n23)c(C(=O)O)cc1OC | 7.56% (inactive)
CC(=O)NS(=O)(=O)c1ccc(N=c2ssc3c2-c2ccc(C)cc2NC3(C)C)cc1 | 4.5% (inactive)
CC1=Nc2ccc(C)cc2/C1=C/c1c(N)n2c(S(=O)(=O)C(C)C)nsc2nc1=O | 19.2% (inactive)
CCc1nnc(NC(=O)CSc2nnc(-c3ccc(NS(=O)(=O)c4ccccc4)cc3)o2)s1 | 2.33% (inactive)
COc1cc(NC(=O)CSc2nc3cc(C)ccc3cc2C)c(C(=O)O)cc1OC | 5.17% (inactive)
CCc1cc2cc3c(cc2nc1SCC(=O)Nc1cc(OC)c(OC)cc1C(=O)O)OCO3 | 0% (inactive)
